Data published in US9345700B2, “Compositions and methods useful for treating diseases” (Eutropics Pharmaceuticals, Inc., priority 2011, dated 2016).
Entries after “also recorded” stand apart in the source; their conditions may differ.

What was measured:
[1] = tested on: SUDHL-6; assay: In situ mitochondrial cytochrome c release assay, semi-permeabilized SUDHL-6; assay type: cell-based, human; details: 20 uM; BAX/BAK-functional cell line
Text: (§1) The on-target activity of compound II-19 was validated. Changes in mitochondrial integrity were observed utilizing anti-cytochrome c conjugated to Alexa488 (BD). When the mitochondria are intact, they retain cytochrome c and have bright, punctate staining with the antibody whereas cells with compromised mitochondrial integrity will lose cytochrome c and will not stain with the antibody. This can be observed by microscopy as well as measured by a shift in fluorescence on the FL1 channel of a flow cytometer.
(§2) The selective response of mitochondria in semi-permeabilized cell lines to the compounds was observed. The assay was adapted from (Campos et al. (2006) Cytometry Part A. 69 (A):515-523).
(§3) Suspension cell lines SUDHL10 and SUDHL6 were grown in RPMI, washed once in 1×PBS and re-suspended at a concentration of 2e6/ml in assay buffer with 0.0025% Digitonin. Assay buffer; 300 mM Trehalose, 10 mM HEPES-KOH pH 7.7, 80 mM KCl, 1 mM EGTA, 1 mM EDTA, 0.1% BSA, 5 mM Succinate. Cells are incubated with test and control compounds at 10^6 cells/treatment for 1 hour at room temperature. Samples are fixed with 4% formaldehyde in PBS for 20 minutes, washed once in PBS, and blocked with 2% FBS/0.5% TritonX-100 in PBS. Samples are re-suspended in blocking buffer with 1:250 anti-cytochrome c conjugated to Alexa488 (BD Cat#56028) for 1 hour at 4° C., washed once with blocking buffer and re-suspended in 200 ul PBS. Cytochrome c loss was measured by microscopy. At least 100 cells per treatment were counted and scored as positive for cytochrome c loss if they lacked staining. In both methods DMSO was calculated as 0% cytochrome c loss and the Bim response for DHL6 was used to determine 100% cytochrome c loss.

[2] = tested on: SUDHL-10; assay: In situ mitochondrial cytochrome c release assay, semi-permeabilized SUDHL-10; assay type: cell-based, human; details: 20 uM; BAX/BAK-deficient cell line
Text: as §1, §2, §3

[3] = tested on: mitochondria from NCI 929; assay: BH3 profiling of mitochondria isolated from NCI 929; assay type: cell-based; details: isolated mitochondria of NCI 929
Text: As another test of the ability of BH3 profiling to detect in vivo Mcl-1 dependence, the cancer cell line NCI 929 (obtained from ATCC) is examined. Mitochondria are isolated from this cell line and exposed to the panel of BH3 peptides in Table 1 and to compounds of Formula I or Formula II. MOMP is quantitated by JC-1 fluorescence and cytochrome c release is quantitated by ELISA as described in Examples 4 and 5. NCI 929 cells are sensitive to treatment with compounds of Formula I or Formula II in vitro. […] On the other hand, treatment of the mitochondria with compounds of Formula I or Formula II induces MOMP as measured by a decrease in the red JC-1 aggregate fluorescence and as measured by an increase in cytochrome c release. This provides support that compounds of formula identified Formula I or Formula II can substitute for Noxa in the mitochondrial BH3 profiling assay and that the mitochondrial response to these compounds is a powerful predictor of what cells are sensitive to Mcl-1 inhibiting drugs in vitro and in vivo.

Row | Compound | release of cytochrome c in SUDHL-6 [1] | release of cytochrome c in SUDHL-10 [2] | mitochondrial response to BH3 peptide [3]
1 | O=C(Nc1cccnc1)c1cc(-c2ccco2)nc2ccc(-c3ccc4scnc4c3)cc12 [Compound 18, 6-(benzo[d]thiazol-5-yl)-2-(furan-2-yl)-N-(pyridin-3-yl)quinoline-4-carboxamide] | activity; also recorded: cause release of cytochrome c | lack of activity and not | 
2 | O=C(Nc1ccccc1)c1cc(-c2ccco2)nc2ccc(-c3ccc4scnc4c3)cc12 [Compound 33, 6-(benzo[d]thiazol-5-yl)-2-(furan-2-yl)-N-phenylquinoline-4-carboxamide] | activity; also recorded: cause release of cytochrome c | lack of activity and not | 
3 | Bad: Bcl-xL reactive BH3 domain peptide Bad from the Table 1 panel (LWAAQRYGRELRRMSDEFEGSFKGL) |  |  | lacking a response
4 | O=C(Nc1cccnc1)c1cc(-c2cn[nH]c2)nc2ccc(-c3ccccc3)cc12 [Compound 38, 6-phenyl-2-(1H-pyrazol-4-yl)-N-(pyridin-3-yl)quinoline-4-carboxamide] | activity; also recorded: cause release of cytochrome c | lack of activity and not | 
5 | O=C(Nc1cccnc1)c1cc(-c2cnn(C3CCCCO3)c2)nc2ccc(-c3ccccc3)cc12 (stereo not drawn) [Compound 37, 6-phenyl-N-(pyridin-3-yl)-2-(1-(tetrahydro-2H-pyran-2-yl)-1H-pyrazol-4-yl)quinoline-4-carboxamide] | activity; also recorded: cause release of cytochrome c | lack of activity and not | 
